Test results as given in patent US4481192A, “Acid-protease inhibiting peptide derivatives” (SANOFI, priority 1982, dated 1984).
Like-named read-outs stand apart in the source and are kept apart here. Non-standard residues stand in square brackets, D forms with d. Residues, ends and D or L forms follow the SMILES beside them. *: point of attachment. X1 = COC(=O)C[C@@H](O)[C@H](CC(C)C)N*; Benzenesulfonyl = O=S(=O)(c1ccccc1)*; Benzylsulfonyl = O=S(=O)(Cc1ccccc1)*; Sta = CC(C)C[C@H](N)[C@@H](O)CC(=O)O; Butanoyl(3,3-Me2) = CC(C)(C)CC(=O)*; Hydrocinnamoyl = O=C(CCc1ccccc1)*; X2 = O=C(NCCS(=O)(=O)*)OCc1ccccc1; Isovaleryl = CC(C)CC(=O)*; Nle = CCCC[C@H](N)C(=O)O; Nva = CCC[C@H](N)C(=O)O; Cbz = O=C(OCc1ccccc1)*; Boc = CC(C)(C)OC(=O)*

What was measured:
porcine pepsin = porcine pepsin (Sus scrofa, UniProt P00791); test: Inhibition of porcine pepsin; assay type: biochemical; settings: pH 2, substrate bovine haemoglobin, 37° C.
porcine pepsin, sequence (P00791 60-385): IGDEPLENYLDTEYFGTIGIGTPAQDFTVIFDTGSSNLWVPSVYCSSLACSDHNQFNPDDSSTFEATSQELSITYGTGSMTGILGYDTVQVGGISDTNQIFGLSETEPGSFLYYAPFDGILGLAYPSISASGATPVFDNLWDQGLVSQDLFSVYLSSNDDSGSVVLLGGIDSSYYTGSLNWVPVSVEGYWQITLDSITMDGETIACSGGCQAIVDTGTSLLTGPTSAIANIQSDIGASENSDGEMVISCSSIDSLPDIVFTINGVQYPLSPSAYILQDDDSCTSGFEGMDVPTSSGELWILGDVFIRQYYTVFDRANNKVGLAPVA
Protocol: The method used is that of TAKAAKI AOYAGI (J. Antibiotics, 24, pages 687-694, 1971). The substrate used is bovine haemoglobin and the enzyme is porcine pepsin.
0.5% strength haemoglobin is hydrolysed with pepsin (1 mcg/ml) at 37° C. in 0.02M KCl-HCl buffer at pH 2.
Preincubation takes place for 3 minutes, followed by incubation for 25 minutes. After precipitation of the proteins with 1.7M perchloric acid, the optical density of the supernatant is determined on a spectrophotometer at 280 nm.
The results are expressed as the percentage inhibition of the maximum optical density obtained in the absence of inhibitor. They are also expressed as an IC50.
(§1) A 10^-3 M stock solution of the peptide is made up in a mixture containing equal volumes of a solution A (19 ml of methanol+1 ml of acetic acid) and a solution B (4 ml of methanol+2 ml of sodium hydroxide solution).
(§2) The subsequent dilutions of the peptide are then prepared in the appropriate buffer in accordance with the procedures described above.

[1] = target: T1, human plasma renin activity (Homo sapiens, UniProt P00797); test: Inhibition of the human plasma renin activity (P.R.A.); assay type: biochemical; settings: 37° C., pool of human plasma
T1 construct: the human plasma contain and the substrate: angiotensinogen, and the enzyme: renin; from tissue; host or cells: pool of human plasma
T1 sequence (P00797 67-406): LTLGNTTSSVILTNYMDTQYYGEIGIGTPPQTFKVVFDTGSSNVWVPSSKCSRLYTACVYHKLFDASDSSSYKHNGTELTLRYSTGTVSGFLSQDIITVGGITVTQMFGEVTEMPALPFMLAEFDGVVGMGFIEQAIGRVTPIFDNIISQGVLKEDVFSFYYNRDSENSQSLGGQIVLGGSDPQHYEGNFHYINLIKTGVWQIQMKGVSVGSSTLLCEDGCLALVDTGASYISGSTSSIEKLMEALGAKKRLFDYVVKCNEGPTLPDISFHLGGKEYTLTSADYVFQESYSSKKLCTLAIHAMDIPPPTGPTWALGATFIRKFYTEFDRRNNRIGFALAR
Protocol: The angiotensin I released during the reaction (the human plasma contain and the substrate: angiotensinogen, and the enzyme: renin) is measured by radioimmunological determination using a kit.
Of course, an inhibitor of the enzyme for conversion of the PMSF (phenylmethylsulphonyl fluoride) is added to the incubation medium.
Two types of experiments were carried out:
one at pH 6, which is the optimum pH for the enzyme reaction with human renin (maleate buffer, incubation: 30 minutes), and
the other at pH 7.4, which is the physiological pH (phosphate buffer, incubation: 60 minutes).
as §1, §2

[2] = pH 6, maleate buffer, incubation 30 minutes, read-out: INHIBITION OF HUMAN P.R.A. (IC50) pH 6
[3] = pH 7.4, phosphate buffer, incubation 60 minutes, read-out: INHIBITION OF HUMAN P.R.A. (IC50) pH 7.4

| SMILES | IC50 (porcine pepsin) | IC50 [1, 2] | IC50 [1, 3] |
| --- | --- | --- | --- |
| COC(=O)C[C@H](O)[C@H](CC(C)C)NC(=O)[C@H](C)NC(=O)C[C@H](O)[C@H](CC(C)C)NC(=O)[C@H](Cc1ccccc1)NC(=O)[C@@H](Cc1ccccc1)NC(=O)OC(C)(C)C [SR 41518, Boc--(D)Phe--Phe--Sta--Ala--Sta--OMe] (Boc-[dF]F[Sta]A[Sta]-OMe) | 480 nM | 950 nM |  |
| CC[C@H](C)[C@H](NC(=O)OC(C)(C)C)C(=O)N[C@@H](Cc1c[nH]cn1)C(=O)N[C@@H](CC(C)C)[C@@H](O)CC(=O)N[C@@H](C)C(=O)N[C@@H](CC(C)C)[C@@H](O)CC(=O)OC [SR 42019, Boc--Ile--His--Sta--Ala--Sta--OMe] (Boc-IH[Sta]A[Sta]-OMe) | 73 nM | 110 nM |  |
| CC(C)C[C@H](NC(=O)[C@H](C)NC(=O)C[C@H](O)[C@H](CC(C)C)NC(=O)[C@H](Cc1ccccc1)NC(=O)[C@H](Cc1ccccc1)NC(=O)OCc1ccccc1)[C@@H](O)CC(=O)O [SR 41225, Z--Phe--Phe--Sta--Ala--Sta--OH] (Cbz-FF[Sta]A[Sta]-OH) | 90 nM | 70 nM | 1000 nM |
| COC(=O)C[C@H](O)[C@H](CC(C)C)NC(=O)[C@H](C)NC(=O)C[C@H](O)[C@H](CC(C)C)NC(=O)[C@H](Cc1c[nH]c2ccccc12)NC(=O)[C@H](Cc1ccccc1)NC(=O)OCc1ccccc1 [SR 41416, Z Phe--Trp--Sta--Ala--Sta--OMe] (Cbz-FW[Sta]A[Sta]-OMe) | 65 nM | 80 nM | 1400 nM |
| COC(=O)C[C@H](O)[C@H](CC(C)C)NC(=O)[C@H](C)NC(=O)C[C@H](O)[C@H](CC(C)C)NC(=O)CNC(=O)[C@H](Cc1ccccc1)NC(=O)CC(C)C [SR 42261, iVa--Phe--Gly--Sta--Ala--Sta--OMe] (Isovaleryl-FG[Sta]A[Sta]-OMe) | 750 nM | 170 nM | 4700 nM |
| COC(=O)C[C@@H](O)[C@H](CC(C)C)NC(=O)[C@H](C)NC(=O)C[C@H](O)[C@H](CC(C)C)NC(=O)[C@H](Cc1ccccc1)NC(=O)[C@H](Cc1ccccc1)NC(=O)CC(C)C [SR 41766, iVa--Phe--Phe--Sta--Ala--isoSta--OMe] (Isovaleryl-FF[Sta]A-X1) | 58 nM | 14 nM | 420 nM |
| COC(=O)C[C@H](O)[C@H](CC(C)C)NC(=O)[C@H](C)NC(=O)C[C@H](O)[C@H](CC(C)C)NC(=O)[C@H](Cc1c[nH]cn1)NC(=O)[C@H](Cc1ccccc1)NS(=O)(=O)CCNC(=O)OCc1ccccc1 [SR 41748, Z--Tau--Phe--His--Sta--Ala--Sta--OCH3] (X2-FH[Sta]A[Sta]-OMe) | 620 nM | 2.2 nM | 110 nM |
| COC(=O)C[C@H](O)[C@H](CC(C)C)NC(=O)[C@H](C)NC(=O)C[C@H](O)[C@H](CC(C)C)NC(=O)[C@H](Cc1ccccc1)NC(=O)[C@H](Cc1ccccc1)NS(=O)(=O)c1ccccc1 [SR 41938, C6 H5 SO2 --Phe--Phe--Sta--Ala--Sta--OCH3] (Benzenesulfonyl-FF[Sta]A[Sta]-OMe) | 63 nM | 1.6 nM | 440 nM |
| CCC[C@H](NC(=O)[C@H](Cc1ccccc1)NC(=O)OC(C)(C)C)C(=O)N[C@@H](CC(C)C)[C@@H](O)CC(=O)N[C@@H](C)C(=O)N[C@@H](CC(C)C)[C@@H](O)CC(=O)OC [SR 41996, Boc--Phe--Nva--Sta--Ala--Sta--OMe] (Boc-F[Nva][Sta]A[Sta]-OMe) |  | 0.0011 nM | 51 nM |
| COC(=O)C[C@H](O)[C@H](CC(C)C)NC(=O)[C@H](C)NC(=O)C[C@H](O)[C@H](CC(C)C)NC(=O)[C@@H](NC(=O)[C@@H](Cc1ccccc1)NC(=O)OC(C)(C)C)C(C)C [SR 41377, Boc--(D)Phe--Val--Sta--Ala--Sta--OCH3] (Boc-[dF]V[Sta]A[Sta]-OMe) | 47 nM |  |  |

Further compounds by falling IC50 (porcine pepsin), results first:

| IC50 (porcine pepsin) | IC50 [1, 2] | IC50 [1, 3] | SMILES |
| --- | --- | --- | --- |
| 42 nM | 50 nM | 1000 nM | COC(=O)C[C@H](O)[C@H](CC(C)C)NC(=O)[C@H](C)NC(=O)C[C@H](O)[C@H](CC(C)C)NC(=O)[C@H](Cc1ccccc1)NC(=O)[C@H](Cc1ccccc1)NC(=O)CCc1ccccc1 [SR 41768, C6 H5 CH2 CH2 CO--Phe--Phe--Sta--Ala--Sta--OMe] (Hydrocinnamoyl-FF[Sta]A[Sta]-OMe) |
| 38 nM | 35 nM | 1000 nM | CC[C@H](C)[C@H](NC(=O)[C@H](Cc1ccccc1)NC(=O)OCc1ccccc1)C(=O)N[C@@H](CC(C)C)[C@@H](O)CC(=O)N[C@@H](C)C(=O)N[C@@H](CC(C)C)[C@@H](O)CC(=O)OC [SR 41477, Z--Phe--ILe--Sta--Ala--Sta--OMe] (Cbz-FI[Sta]A[Sta]-OMe) |
| 36 nM | 17 nM | 880 nM | COC(=O)C[C@H](O)[C@H](CC(C)C)NC(=O)[C@H](C)NC(=O)C[C@H](O)[C@H](CC(C)C)NC(=O)[C@H](Cc1ccccc1)NC(=O)[C@H](Cc1ccccc1)NS(=O)(=O)Cc1ccccc1 [SR 41939, C6 H5 CH2 SO2 --Phe--Phe--Sta--Ala--Sta--OCH3] (Benzylsulfonyl-FF[Sta]A[Sta]-OMe) |
| 30 nM | 17 nM | 3500 nM | COC(=O)C[C@H](O)[C@H](CC(C)C)NC(=O)[C@H](C)NC(=O)C[C@H](O)[C@H](CC(C)C)NC(=O)[C@H](Cc1ccccc1)NC(=O)[C@H](Cc1ccccc1)NC(=O)OCc1ccccc1 [SR 41320, Z--Phe--Phe--Sta--Ala--Sta--OMe] (Cbz-FF[Sta]A[Sta]-OMe) |
| 27 nM | 26 nM | 480 nM | COC(=O)C[C@H](O)[C@H](CC(C)C)NC(=O)[C@H](C)NC(=O)C[C@H](O)[C@H](CC(C)C)NC(=O)[C@H](Cc1ccccc1)NC(=O)[C@H](Cc1ccccc1)NC(=O)CC(C)(C)C [SR 42256, t--BuAc--Phe--Phe--Sta--Ala--Sta--OMe] ({Butanoyl(3,3-Me2)}-FF[Sta]A[Sta]-OMe) |
| 22 nM | 260 nM | 4000 nM | CC(C)C[C@H](NC(=O)[C@H](C)NC(=O)C[C@H](O)[C@H](CC(C)C)NC(=O)[C@@H](NC(=O)[C@@H](Cc1ccccc1)NC(=O)OC(C)(C)C)C(C)C)[C@@H](O)CC(=O)O [SR 41491, Boc--(D)Phe--Val--Sta--Ala--Sta--OH] (Boc-[dF]V[Sta]A[Sta]-OH) |
| 19 nM |  |  | CCCC[C@H](NC(=O)[C@H](Cc1ccccc1)NC(=O)CC(C)C)C(=O)N[C@@H](CC(C)C)[C@@H](O)CC(=O)N[C@@H](C)C(=O)N[C@@H](CC(C)C)[C@@H](O)CC(=O)O [SR 42128, iVa--Phe--Nle--Sta--Ala--Sta--OH] (Isovaleryl-F[Nle][Sta]A[Sta]-OH) |
| 18 nM | 9 nM | 470 nM | COC(=O)C[C@H](O)[C@H](CC(C)C)NC(=O)[C@H](C)NC(=O)C[C@H](O)[C@H](CC(C)C)NC(=O)[C@H](C)NC(=O)[C@H](Cc1ccccc1)NC(=O)CC(C)C [SR 42258, iVa--Phe--Ala--Sta--Ala--Sta--OMe] (Isovaleryl-FA[Sta]A[Sta]-OMe) |
| 13 nM | 0.76 nM | 260 nM | CCC[C@H](NC(=O)[C@H](Cc1ccccc1)NC(C)=O)C(=O)N[C@@H](CC(C)C)[C@@H](O)CC(=O)N[C@@H](C)C(=O)N[C@@H](CC(C)C)[C@@H](O)CC(=O)OC [SR 41994, Ac--Phe--Nva--Sta--Ala--Sta--OMe] (Ac-F[Nva][Sta]A[Sta]-OMe) |
